Results: patent publication US20250345443A1, “PHARMACEUTICAL COMPOUND AND USE THEREOF” (DUALITY BIOLOGICS (SUZHOU) CO., LTD., priority 2022, published 2025)

Assays:
Assay type in all cases: cell-based
[1] = molecular target: T1, hTLR8 (human Toll-like receptor 8) (Homo sapiens, UniProt Q9NR97); assay: Agonistic activity of compounds on hTLR8 (HEK-Blue hTLR8 cells, QUANTI-Blue OD650); settings: 24 h
T1 construct: host or cells: HEK-Blue hTLR8 cells
T1 sequence (Q9NR97 27-1041): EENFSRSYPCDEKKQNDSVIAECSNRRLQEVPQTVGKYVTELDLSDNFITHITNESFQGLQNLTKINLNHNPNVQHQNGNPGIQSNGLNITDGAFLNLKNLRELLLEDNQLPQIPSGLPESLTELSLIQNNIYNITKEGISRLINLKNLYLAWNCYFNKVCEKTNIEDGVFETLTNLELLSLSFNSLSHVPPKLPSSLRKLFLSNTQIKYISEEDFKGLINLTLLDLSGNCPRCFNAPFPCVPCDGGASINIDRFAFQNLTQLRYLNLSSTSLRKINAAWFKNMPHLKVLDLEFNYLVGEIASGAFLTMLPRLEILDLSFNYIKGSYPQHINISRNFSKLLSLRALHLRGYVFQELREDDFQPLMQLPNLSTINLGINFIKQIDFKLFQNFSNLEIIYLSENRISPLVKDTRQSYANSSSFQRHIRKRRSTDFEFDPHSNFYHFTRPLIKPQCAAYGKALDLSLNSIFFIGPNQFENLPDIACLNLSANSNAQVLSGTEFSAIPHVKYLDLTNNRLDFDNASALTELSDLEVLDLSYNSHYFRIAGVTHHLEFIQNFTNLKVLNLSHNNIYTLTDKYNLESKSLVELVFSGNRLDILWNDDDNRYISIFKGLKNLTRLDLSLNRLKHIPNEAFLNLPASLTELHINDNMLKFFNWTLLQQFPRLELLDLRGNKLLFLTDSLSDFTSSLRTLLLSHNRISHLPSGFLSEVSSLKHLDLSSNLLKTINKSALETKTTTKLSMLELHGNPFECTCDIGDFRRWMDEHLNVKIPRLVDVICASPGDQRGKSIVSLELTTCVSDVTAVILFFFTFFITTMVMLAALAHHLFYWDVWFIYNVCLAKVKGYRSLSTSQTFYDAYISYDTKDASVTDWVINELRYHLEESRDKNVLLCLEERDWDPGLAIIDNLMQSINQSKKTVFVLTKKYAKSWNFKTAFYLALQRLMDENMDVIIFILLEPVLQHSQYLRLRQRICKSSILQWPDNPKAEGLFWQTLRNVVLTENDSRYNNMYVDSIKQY
Experimental: (§1) In this example, the agonistic activity of the compounds of the present application on hTLR7 (human Toll-like receptor 7) and hTLR8 (human Toll-like receptor 8) was assessed; the induction activity of the compounds on human PBMCs for TNF-α and IFN-α production was assessed in human PBMCs (human peripheral blood mononuclear cells).
(§2) All compounds were formulated in DMSO into 30 mM concentrated stock solutions and preserved at 4° C. […] HEK-Blue hTLR7 and HEK-Blue hTLR8 cell lines were purchased from InvivoGen, and human PBMCs were purchased from Shanghai Saily Biotechnology Co., Ltd. (Cat. No. XFB—HP100B).
(§3) Compound dilution: The compounds of the present application were diluted with DMSO, for example, to about 15 mM. The reference compounds were diluted and then sequentially added to cell plates. […] DMSO was added to the negative control wells at 0.2 μL/well, and the reference compounds were added to the positive control wells. The final concentration of DMSO was 0.2%.
(§4) Cell plating: When an 80% confluence of HEK Blue hTLR7&8 cells in the culture flask was observed under a microscope, the culture medium was discarded, 10 mL of detection medium was added, and the cells were pipetted to form a single-cell suspension. The cells were counted using a cell counter and diluted to 500,000 cells/mL. The cells were plated at 100 μL/50,000 cells/well in the 96-well plates containing the compounds. The compounds and cells were co-incubated in an incubator at 37° C. with 5% CO2 for 24 h.
(§5) Compound activity detection: 20 μL of cell supernatant was taken from each well and added to an experimental plate containing QUANTI-Blue™ reagent at 180 μL/well. The plate was incubated at 37° C. for 1 h, and then the absorbance at 650 nm (OD650) was measured on the multimode microplate reader Flexstation III.
(§6) The EC50 values of the compounds were calculated.

human PBMCs [2] = assay: Induction activity of compounds on TNF-α in human PBMCs (ELISA); settings: 24 h
Experimental: (§7) PBMC cells were treated with the compounds. The compounds of the present application were diluted with DMSO, for example, to about 15 mM. The reference compounds were diluted to 5 mg/mL and then sequentially added to cell plates. The compounds were serially 3-fold diluted to give a total of 8 concentrations and added to cell plates, with two replicate wells set for each concentration. DMSO was added to the negative control wells at 0.4 μL/well, and the reference compounds at 5 mg/mL were added to the positive control wells at 0.4 μL/well. The final concentration of DMSO was 0.2%. Frozen human PBMCs in cryopreservation tubes were quickly thawed in a 37° C. water bath and transferred into 50-mL centrifuge tubes. Pre-warmed RPMI1640 medium was gradually added, and the mixture was well mixed and centrifuged for 15 min before the supernatant was discarded. The cells were resuspended in a culture medium and then counted. The cell suspension was adjusted to 2.5×10^6 cells/mL with the culture medium. Diluted cells were added at 200 μL/500,000 cells/well in the 96-well plates containing the compounds.
The plate was then washed 3 times.
(§8) Compound activity data analysis: The OD450 values were converted to TNF-α and IFN-α contents by GraphPad Prism software analysis and fitted to give dose-response curves of the compounds. The EC50 values of the compounds were calculated.

human PBMCs [3] = assay: Induction activity of compounds on IFN-α in human PBMCs (ELISA); settings: 24 h
Experimental: as §7, §8

[4] = molecular target: T2, hTLR7 (human Toll-like receptor 7) (Homo sapiens, UniProt Q9NYK1); assay: Agonistic activity of compounds on hTLR7 (HEK-Blue hTLR7 cells, QUANTI-Blue OD650); settings: 24 h
T2 construct: host or cells: HEK-Blue hTLR7 cells
T2 sequence (Q9NYK1 27-1049): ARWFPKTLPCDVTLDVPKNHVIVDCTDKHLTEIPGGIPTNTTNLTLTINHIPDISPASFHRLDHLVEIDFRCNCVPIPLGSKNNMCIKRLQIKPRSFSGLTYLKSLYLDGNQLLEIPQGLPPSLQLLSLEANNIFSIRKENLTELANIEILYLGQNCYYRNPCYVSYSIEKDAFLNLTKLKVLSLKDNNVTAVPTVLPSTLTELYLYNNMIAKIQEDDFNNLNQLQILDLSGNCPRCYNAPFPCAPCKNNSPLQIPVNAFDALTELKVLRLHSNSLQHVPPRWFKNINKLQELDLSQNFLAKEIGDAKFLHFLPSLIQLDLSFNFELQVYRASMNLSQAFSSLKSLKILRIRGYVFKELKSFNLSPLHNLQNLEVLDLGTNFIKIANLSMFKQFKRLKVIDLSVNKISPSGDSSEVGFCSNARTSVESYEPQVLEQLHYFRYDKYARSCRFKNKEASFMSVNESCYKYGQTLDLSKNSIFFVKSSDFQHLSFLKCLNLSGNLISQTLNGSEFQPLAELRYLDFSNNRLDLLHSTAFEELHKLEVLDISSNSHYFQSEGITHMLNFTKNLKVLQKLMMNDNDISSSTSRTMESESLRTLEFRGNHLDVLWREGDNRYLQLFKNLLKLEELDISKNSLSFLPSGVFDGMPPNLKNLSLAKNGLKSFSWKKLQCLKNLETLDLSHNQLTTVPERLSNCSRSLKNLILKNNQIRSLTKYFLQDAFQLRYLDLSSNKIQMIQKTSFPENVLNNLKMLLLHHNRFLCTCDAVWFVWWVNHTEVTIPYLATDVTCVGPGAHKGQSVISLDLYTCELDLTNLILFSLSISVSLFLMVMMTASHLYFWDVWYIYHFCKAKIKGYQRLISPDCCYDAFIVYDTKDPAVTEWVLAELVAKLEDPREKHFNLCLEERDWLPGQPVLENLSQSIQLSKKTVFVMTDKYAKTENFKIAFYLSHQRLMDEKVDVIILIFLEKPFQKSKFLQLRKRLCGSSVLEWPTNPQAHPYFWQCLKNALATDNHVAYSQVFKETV
Experimental: as §1, §2, §3, §4, §5, §6

hTLR8 = molecular target: T3, hTLR8 (Homo sapiens, UniProt Q9NR97); assay: Stimulation of spleen cells from hTLR8-C57BL/6 mice with TLR8 agonists (ELISA)
T3 construct: tissue Biocytogen; host or cells: spleen cells from hTLR8-C57BL/6 (hTLR8 humanized, knock-in) mice
T3 sequence (Q9NR97 27-1041): T1 sequence (Q9NR97 27-1041)

EC50 [1] [nM]	EC50 [4] [nM]	Compound	EC50 (human PBMCs [2]; PBMC) [nM]	EC50 (human PBMCs [3]; PBMC) [nM]	secretion of TNFα and IFNγ by spleen cells (hTLR8)	EC50 (human PBMCs [2]) [nM]	EC50 (human PBMCs [3]) [nM]
55.2	434	CCCCc1nc2c(N)nc3cccc(CCCCN)c3c2s1 [compound 16]	117	451			
11.6	191	CCCCc1nc2c(N)nc3cccc(CCCCCN)c3c2s1 [compound 14]	147	74			
		CCCC[C@](C)(CO)Nc1nc(N)nc2cc(F)cnc12 [GS-9688]			increase in the secretion of TNFα and IFNγ		
33.2	6260	CCCN(Cc1ccc(N)cc1)C(=O)C1=Cc2ccc(-c3cncc(CO)c3)cc2N=C(N)C1 [compound 10]	375	45			
21.1	> 30000	CCCN(CCC)C(=O)C1=Cc2ccc(-c3ccc(C(=O)N4CCCC4)cc3)cc2N=C(N)C1 [VTX-2337, reference compound]	1010	> 7500			
		CCCN(Cc1ccc(N)cc1)C(=O)C1=Cc2ccc(-c3ccc(C(=O)N4CC[C@@H](O)C4)cc3)cc2N=C(N)C1 [compound 11]	303	453			
		CCOCc1nc2c(N)nc3ccccc3c2n1CC(C)(C)O [R848, reference compound]				2330	202
6.52	73.3	CCCCc1nc2c(N)nc3cccc(CCCCN)c3c2o1 [compound 20]					
173	192	CCCCc1nc2c(N)nc3cccc(CCCCCCN)c3c2s1 [compound 17]	132	50			
11.3	149	CCCCc1nc2c(N)nc3cccc(CCCCCN)c3c2o1 [compound 19]					
260	1060	CCOCc1nc2c(N)nc3cccc(CCCCCN)c3c2s1 [compound 18]					
60.8	14400	CCCN(Cc1cccc(N)c1)C(=O)C1=Cc2ccc(-c3cncc(CO)c3)cc2N=C(N)C1 [compound 13]					
432	1670	CCCN(Cc1ccc(N)cc1)C(=O)C1=Cc2ccc(-c3ccc4c(c3)C(=O)OC4)cc2N=C(N)C1 [compound 12]	351	191			
